Data on 44 compounds can be found in ChEMBL document CHEMBL1201862, “PubChem BioAssay data set” (2004).

Active and inactive are the calls of the source. Some results are limits rather than exact numbers.

Some targets named below: Cytochrome P450 3A4 (Homo sapiens, UniProt P08684); Cytochrome P450 2C9 (Homo sapiens, UniProt P11712); Cytochrome P450 2D6 (Homo sapiens, UniProt P10635).
In a further experiment the target is T1, Cytochrome P450 1A2 (Homo sapiens, UniProt P05177).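 Also: PubChem cytochrome P450 panel assay, CYP1A2 panel member.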
T1 sequence (P05177 whole entry): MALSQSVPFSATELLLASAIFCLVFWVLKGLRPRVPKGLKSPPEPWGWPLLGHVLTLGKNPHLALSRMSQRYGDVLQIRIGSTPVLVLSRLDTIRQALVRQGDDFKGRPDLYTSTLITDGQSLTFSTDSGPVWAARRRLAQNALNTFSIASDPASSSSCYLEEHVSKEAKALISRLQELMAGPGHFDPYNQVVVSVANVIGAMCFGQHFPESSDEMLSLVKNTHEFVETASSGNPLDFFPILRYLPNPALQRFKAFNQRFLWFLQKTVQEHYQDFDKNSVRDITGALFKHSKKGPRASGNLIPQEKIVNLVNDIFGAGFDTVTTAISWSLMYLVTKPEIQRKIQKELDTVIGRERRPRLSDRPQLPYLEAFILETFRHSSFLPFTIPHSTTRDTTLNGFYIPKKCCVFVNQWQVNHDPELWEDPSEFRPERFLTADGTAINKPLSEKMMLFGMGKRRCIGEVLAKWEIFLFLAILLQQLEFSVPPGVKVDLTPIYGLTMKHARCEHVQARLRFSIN

The nature of experiment [1]: Luminescence Cell-Based Dose Retest to Confirm Inhibitors of Cancer Stem Cells. [Related pubchem assays (depositor defined):AID2717, AID2721]. The class given is functional. The note with it: Homo sapiens.
Experiment [2] deals with Streptococcus sp. 'group A'. The experiment is described as follows: growth inhibition of control SK(-) GAS strain, dose response, counter-screen for streptokinase expression inhibitor project, luminescence, kanamycin, BacTiterGlo, confirmation (AID 1900). The class given is functional, organism-based.
Another experiment concerns Streptococcus. Kind of experiment: Group A Streptococcus viability loss, dose response, counter-screen for streptokinase expression inhibitor project, luminescence, BacTiterGlo (AID 1915).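 Also: potency for reduction of bacterial viability or growth.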 Format: functional, organism-based.
The target in the next experiment is T2, Streptokinase A (Streptococcus pyogenes serotype M1, UniProt P10520).
T2 sequence (P10520 whole entry): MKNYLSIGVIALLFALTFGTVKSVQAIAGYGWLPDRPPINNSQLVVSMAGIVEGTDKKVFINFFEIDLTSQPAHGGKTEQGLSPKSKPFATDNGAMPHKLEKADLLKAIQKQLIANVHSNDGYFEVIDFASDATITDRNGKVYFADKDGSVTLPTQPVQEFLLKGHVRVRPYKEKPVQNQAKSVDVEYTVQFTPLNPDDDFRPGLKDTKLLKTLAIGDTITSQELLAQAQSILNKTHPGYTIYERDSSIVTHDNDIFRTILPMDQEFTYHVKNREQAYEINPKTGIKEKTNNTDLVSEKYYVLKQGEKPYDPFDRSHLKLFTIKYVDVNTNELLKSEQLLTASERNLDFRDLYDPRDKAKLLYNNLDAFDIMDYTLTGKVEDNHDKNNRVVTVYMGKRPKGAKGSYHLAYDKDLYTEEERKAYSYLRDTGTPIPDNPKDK
The experiment is described as follows: S. pyogenes streptokinase expression inhibitors, potency, dose response, plasminogen activation absorbance, OD405 (AID 1914).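 Also: secreted streptokinase activity via plasminogen activation per viability signal from cell pellet.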 The class given is functional, Streptococcus pyogenes M1 GAS.

For another experiment, the target named is Cytochrome P450 2C19 (Homo sapiens, UniProt P33261). Kind of experiment: Cytochrome panel assay with activity outcomes. Panel member name: p450-cyp2c19 Compounds with AC50 equal or less than 10 uM are considered active. Particulars: read-out: AC50. Format: functional.
Sequence of Cytochrome P450 2C19 (P33261 whole entry): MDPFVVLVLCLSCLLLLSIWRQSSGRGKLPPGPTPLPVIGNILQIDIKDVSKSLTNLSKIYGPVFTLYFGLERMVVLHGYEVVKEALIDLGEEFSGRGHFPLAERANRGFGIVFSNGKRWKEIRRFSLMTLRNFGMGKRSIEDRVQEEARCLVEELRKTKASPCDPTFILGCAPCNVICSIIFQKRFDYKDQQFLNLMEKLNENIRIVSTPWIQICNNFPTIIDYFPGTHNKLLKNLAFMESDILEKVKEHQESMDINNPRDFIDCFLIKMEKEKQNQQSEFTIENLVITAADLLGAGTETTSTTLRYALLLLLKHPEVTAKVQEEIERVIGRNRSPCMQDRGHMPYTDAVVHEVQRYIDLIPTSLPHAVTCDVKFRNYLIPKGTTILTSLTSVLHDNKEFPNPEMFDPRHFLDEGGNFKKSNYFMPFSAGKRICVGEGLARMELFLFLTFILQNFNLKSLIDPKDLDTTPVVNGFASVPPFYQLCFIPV
In experiment [3] the target is T3, Heat shock factor protein 1 (Mus musculus, UniProt P38532).
T3 sequence (P38532 whole entry): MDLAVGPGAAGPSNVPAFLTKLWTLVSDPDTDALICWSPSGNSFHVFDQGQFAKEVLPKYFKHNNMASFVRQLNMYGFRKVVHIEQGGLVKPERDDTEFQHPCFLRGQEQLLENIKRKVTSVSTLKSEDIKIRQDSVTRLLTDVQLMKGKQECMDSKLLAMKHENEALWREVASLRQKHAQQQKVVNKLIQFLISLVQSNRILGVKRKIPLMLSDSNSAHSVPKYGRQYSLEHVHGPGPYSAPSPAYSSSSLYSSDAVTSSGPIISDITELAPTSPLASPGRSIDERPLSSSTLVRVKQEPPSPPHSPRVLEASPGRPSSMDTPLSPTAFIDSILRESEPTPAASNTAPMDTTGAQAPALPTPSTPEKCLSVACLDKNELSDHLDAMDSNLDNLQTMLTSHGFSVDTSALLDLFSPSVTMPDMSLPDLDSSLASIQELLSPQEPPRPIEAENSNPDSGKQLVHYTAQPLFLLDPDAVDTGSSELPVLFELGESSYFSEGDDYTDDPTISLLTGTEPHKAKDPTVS
Kind of experiment: inhibition of MG132-induced HSE-luciferase signal, confirmation, cell-based, NIH3T3, luminescence, dose retest (AID 2382).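 Also: NIH3T3 fibroblasts with HSF1-driven luciferase reporter stressed by proteasome inhibitor MG132; luminescence from HSF1-driven luciferase expression after 8 hours of MG132 stress.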 The class given is functional.

Sequence of Cytochrome P450 2D6 (P10635 whole entry): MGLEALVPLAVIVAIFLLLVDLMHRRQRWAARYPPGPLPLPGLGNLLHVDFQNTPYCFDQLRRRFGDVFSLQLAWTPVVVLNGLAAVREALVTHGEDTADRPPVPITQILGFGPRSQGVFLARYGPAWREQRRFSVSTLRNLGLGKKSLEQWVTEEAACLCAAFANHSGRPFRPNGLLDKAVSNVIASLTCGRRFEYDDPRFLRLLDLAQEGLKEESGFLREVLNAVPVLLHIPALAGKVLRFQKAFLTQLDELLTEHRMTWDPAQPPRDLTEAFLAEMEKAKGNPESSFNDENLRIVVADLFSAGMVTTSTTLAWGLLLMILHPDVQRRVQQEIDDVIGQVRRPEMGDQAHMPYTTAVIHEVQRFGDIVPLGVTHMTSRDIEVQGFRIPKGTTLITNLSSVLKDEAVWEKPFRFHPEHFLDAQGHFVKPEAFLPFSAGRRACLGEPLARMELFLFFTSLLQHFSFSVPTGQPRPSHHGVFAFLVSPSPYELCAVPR
Sequence of Cytochrome P450 2C9 (P11712 whole entry): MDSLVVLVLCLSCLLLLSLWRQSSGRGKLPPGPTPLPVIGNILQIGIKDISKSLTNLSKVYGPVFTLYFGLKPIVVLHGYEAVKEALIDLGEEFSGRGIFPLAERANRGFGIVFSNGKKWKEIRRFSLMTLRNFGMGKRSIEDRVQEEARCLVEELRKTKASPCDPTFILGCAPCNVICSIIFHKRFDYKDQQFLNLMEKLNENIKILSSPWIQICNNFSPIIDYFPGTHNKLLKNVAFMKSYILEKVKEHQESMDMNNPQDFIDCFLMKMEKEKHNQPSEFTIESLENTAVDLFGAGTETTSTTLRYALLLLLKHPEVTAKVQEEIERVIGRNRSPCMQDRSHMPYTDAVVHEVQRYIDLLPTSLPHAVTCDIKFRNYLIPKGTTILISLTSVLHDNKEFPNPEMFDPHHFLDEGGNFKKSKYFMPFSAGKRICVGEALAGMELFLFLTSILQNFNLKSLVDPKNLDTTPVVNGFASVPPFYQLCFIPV
Sequence of Cytochrome P450 3A4 (P08684 whole entry): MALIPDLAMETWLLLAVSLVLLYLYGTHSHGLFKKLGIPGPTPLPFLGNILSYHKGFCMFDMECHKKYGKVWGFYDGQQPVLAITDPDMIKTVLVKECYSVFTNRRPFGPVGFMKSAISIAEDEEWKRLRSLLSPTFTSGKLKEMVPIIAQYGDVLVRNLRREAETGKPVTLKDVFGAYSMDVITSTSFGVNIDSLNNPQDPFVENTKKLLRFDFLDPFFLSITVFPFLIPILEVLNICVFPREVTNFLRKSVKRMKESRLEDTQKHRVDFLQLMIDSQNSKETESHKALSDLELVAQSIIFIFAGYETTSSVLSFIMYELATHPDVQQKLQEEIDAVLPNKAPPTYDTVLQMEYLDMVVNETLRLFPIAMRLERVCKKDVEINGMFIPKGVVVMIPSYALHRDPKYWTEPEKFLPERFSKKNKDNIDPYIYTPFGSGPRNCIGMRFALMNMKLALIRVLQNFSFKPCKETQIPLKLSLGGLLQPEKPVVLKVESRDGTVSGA

Consider `C[C@]1(C2CCCC2)Cc2cc(OCC(=O)O)c(Cl)c(Cl)c2C1=O`, for which the AC50 is 12.6 µM (inconclusive) at Cytochrome P450 3A4 and 39.8 µM (inconclusive) on Cytochrome P450 2C9. Regarding `COc1ccccc1-c1nccc(NCc2cnc(C)cn2)n1`, the AC50 on Cytochrome P450 3A4 is 39.8 µM (inconclusive). `CCNc1ncc2nc(-c3ccc(Cl)cc3)c(=O)n(-c3ccccc3)c2n1`: the AC50 at Cytochrome P450 1A2 was 1 µM (inconclusive). `COc1ccc(/C=C2\C(=O)c3ccccc3OC2c2ccccc2)cc1` (centres undefined): in experiment [1], the AC50 was 1.12 µM (active). In the case of `Cl/C(=N\c1cccc2ccccc12)N(c1ccccc1)c1ccccc1`, the AC50 was 3.98 µM (inconclusive) on Cytochrome P450 3A4 and 1 µM (inconclusive) at Cytochrome P450 1A2.

Regarding `CCCCNC(=O)c1cn(CC(C)C)c(=O)c2c1c1ccccc1n2C`, the EC50 in [2] is 15.5 µM (active); in the experiment with Streptococcus it was > 150 µM (not active); on Streptokinase A, > 150 µM (not active). Take `COC(=O)[C@@]1(Cc2ccccc2)[C@H]2c3cc(C(=O)N4CCCC4)n(Cc4c(CO)ncc(C)c4O)c3C[C@H]2CN1C(=O)c1ccccc1`: the AC50 on Cytochrome P450 1A2 is 5.01 µM (inconclusive). Turning to `O=C(Nc1ccc(Cl)cc1C(=O)c1ccccc1)c1ccco1`, the values for the AC50 on Cytochrome P450 3A4 and on Cytochrome P450 2C9 were 22.4 µM (inconclusive) and 3.98 µM (inconclusive), respectively. With `CCC12C=CCN3CCC4(c5cc(Br)c(OC)cc5N(C)C4C(O)(C(=O)OC)C1OC(C)=O)C32` (centres undefined), the figures for the AC50 at Cytochrome P450 2C19, at Cytochrome P450 3A4 and at Cytochrome P450 2C9 were 11.2 µM (inconclusive), 39.8 µM (inconclusive) and 22.4 µM (inconclusive), respectively. As to `OCCCNc1nc(-c2ccccc2)c2cc(Br)ccc2n1`, the AC50 in experiment [1] is 24 µM (active). For `O=C(c1ccc(CSc2ccccc2)cc1)N1CCN(c2ccccc2)CC1`, the AC50 in experiment [1] is 3.26 µM (active). With `CN1CCN(c2ncc3nc(-c4cccs4)c(=O)n(C[C@H]4CCCO4)c3n2)CC1`, the AC50 on Cytochrome P450 3A4 was 10 µM (inconclusive).

For the compound `Oc1c(C(O)(c2ccccc2)c2ccc3ccccc3c2O)ccc2ccccc12`, the results for the concentration at half-maximal activity (AC50) on Cytochrome P450 2D6 and on Cytochrome P450 1A2 were 3.98 µM (inconclusive) and 1 µM (inconclusive), respectively. With `O=C1C2C(c3ccccc3)CC=CC2[C@H](c2ccc(C(F)(F)F)cc2)N1Cc1ccccc1` (some centres undefined), the AC50 in [1] is 5.21 µM (active). `CC(=O)Nc1cccc(C(=O)OC(C(=O)c2ccc(C)c(C)c2)c2ccccc2)c1` (centres undefined): the AC50 is 17.8 µM (inconclusive) on Cytochrome P450 2D6 and 22.4 µM (inconclusive) on Cytochrome P450 1A2. Take `CC1(C)Cc2c(sc3c2C(=O)N(c2ccccc2)C2=NCCN23)CS1`: the AC50 at Cytochrome P450 1A2 is 22.4 µM (inconclusive). The same measure, in the same setting: the value for `Cn1c(OCc2ccc3c(c2)OCO3)nc2c1c(=O)n(Cc1ccc(Cl)c(Cl)c1)c(=O)n2C` was 14.1 µM (inconclusive).

As to `CC(C)(C)N(Cc1ccccc1)C(=O)c1cc2ccccc2o1`, the AC50 in experiment [1] was 0.407 µM (active). On to `CCOC(=O)c1sc2c(c1C)c(=O)c(C(=O)OCC)cn2CC`, for which the AC50 on Cytochrome P450 1A2 is 25.1 µM (inconclusive). `Cc1cc2nc(CSc3ccccc3)cc(O)n2n1`: on Streptokinase A, the EC50 is listed as > 150 µM (not active). Turning to `O=C(Nc1ccc2c(c1)OCO2)c1cc(-c2cccc(O)c2)on1`, the AC50 in experiment [1] was 0.715 µM (active). Take `NNC(=O)c1nn(-c2ccc(Cl)cc2)ccc1=O`: the AC50 on Cytochrome P450 3A4 is 25.1 µM (inconclusive). Regarding `COc1ccc(-c2cc([C@H]3[C@@H]4C=CCC[C@@]4(C)C(=O)N3Cc3ccccc3)ccc2F)cc1OC`, the AC50 in [1] is 3.92 µM (active).

`COc1ccc(NC(=O)CSc2nncn2C)c([N+](=O)[O-])c1`: the AC50 on Cytochrome P450 3A4 is 22.4 µM (inconclusive); at Cytochrome P450 2C9 it was 14.1 µM (inconclusive). As to `CCCC(c1nnnn1CC1CCCO1)N1CCN(c2cc(Cl)ccc2C)CC1` (centres undefined), in experiment [1], the AC50 was 3.53 µM (active). As to `COC(=O)c1ccc(CN(c2ccc(C(=O)O)c(O)c2)S(=O)(=O)c2ccc(Cl)c([N+](=O)[O-])c2)cc1`, the EC50 in experiment [2] was 1.48 µM (active); in the experiment with Streptococcus, 5.96 µM (active). In [1], the AC50 is 4.38 µM (active). In the case of `CC(=O)NCCNc1ncnc2ccc(-c3ccc(C(=O)N(C)C)cc3)cc12`, the AC50 on Cytochrome P450 1A2 is 25.1 µM (inconclusive).

In the case of `O=C1[C@H]2[C@H]3[C@H](O)[C@H](O)C/C(=N/OC[C@@H](O)COCc4ccco4)[C@H]3CC[C@@H]2C(=O)N1C1CCCCC1`, at Cytochrome P450 3A4, the AC50 is 3.98 µM (inconclusive). `O=C(CSc1nnc(CNc2ccc(F)cc2)o1)N1c2ccccc2Sc2ccccc21`: the AC50 on Cytochrome P450 1A2 is 10 µM (inconclusive). For `COc1cccc(-c2sc3ccc(OC)cc3c2C#CC2(O)CCCCC2)c1`, the AC50 in [1] was 3.74 µM (active). Take `CC1CCCC(NC(=O)C2CCN(S(=O)(=O)N3CCC4(CC3)OCCO4)CC2)C1C` (centres undefined): the AC50 on Cytochrome P450 2C19 was 6.31 µM (inconclusive); at Cytochrome P450 3A4, 14.1 µM (inconclusive); at Cytochrome P450 2C9, 39.8 µM (inconclusive). `Cc1ccccc1NS(=O)(=O)c1ccc2ncc(C(=O)N(C)Cc3ccco3)c(O)c2c1`: the values for the AC50 on Cytochrome P450 2D6 and on Cytochrome P450 3A4 were 17.8 µM (inconclusive) and 0.794 µM (inconclusive), respectively. The like results for `Cc1cccc(NC(=S)c2nc3ccccc3s2)c1` were, in that order, 35.5 µM (inconclusive) and 3.98 µM (inconclusive). Turning to `CCCCOC(=O)CSCC(=O)Nc1cc(C)on1`, the EC50 in [3] was > 195 µM (not active). Also, the AC50 on Cytochrome P450 2C9 is 2.51 µM (inconclusive); on Cytochrome P450 1A2 it was 25.1 µM (inconclusive). `CCOc1ccc(-c2nnc3ccc(SCC(=O)NCc4ccco4)nn23)cc1`: the AC50 at Cytochrome P450 2C19 was 1 µM (inconclusive); on Cytochrome P450 3A4 it was 7.94 µM (inconclusive); on Cytochrome P450 1A2 it was 15.8 µM (inconclusive).

Turning to `Oc1nc(Nc2cccc(Cl)c2)sc1/C=C1\C=Nc2ccccc21`, the AC50 in experiment [1] is 1.91 µM (active). With `CCc1nc(N2CCN(Cc3ccc4c(c3)OCO4)CC2)c2oc3ccccc3c2n1`, the AC50 in experiment [1] is 2.71 µM (active). `CC(C)Sc1cc(N2CCOCC2)nc(-c2ccc(Cl)cc2)n1`: the AC50 at Cytochrome P450 2C19 was 11.2 µM (inconclusive); on Cytochrome P450 3A4, 17.8 µM (inconclusive); at Cytochrome P450 2C9, 11.2 µM (inconclusive).

On to `Cc1ccc(CCN2CC(C(=O)N3CCC4(CC3)OCCO4)CC2=O)cc1` (centres undefined), for which the AC50 is 17.8 µM (inconclusive) on Cytochrome P450 3A4 and 12.6 µM (inconclusive) on Cytochrome P450 2C9.

Consider `COc1ccc(/C=N/NC(=O)CCc2ccccc2)cc1O`, for which the figures for the AC50 on Cytochrome P450 2C19 and on Cytochrome P450 3A4 were 15.8 µM (inconclusive) and 22.4 µM (inconclusive), respectively.

Turning to `Cc1ccc(/N=C/c2cc(C)n(C3CCCC3)c2C)cc1`, the AC50 at Cytochrome P450 3A4 was 20 µM (inconclusive). Still for that read-out and setting: with `CO/N=C/C(=C\Nc1ccccc1)c1ncc(C(F)(F)F)cc1Cl` the figure was 22.4 µM (inconclusive). Take `O=C(O)[C@H]1CN(CCCP(=O)(O)O)CCN1`: at Cytochrome P450 1A2, the AC50 was 39.8 µM (inconclusive). Take `CN(C)c1cc2c(Nc3ccc4c(cnn4Cc4ccccc4)c3)ncnc2cn1` [GW282974X]: the AC50 is 25.1 µM (inconclusive) at Cytochrome P450 2C19 and 31.6 µM (inconclusive) on Cytochrome P450 2D6.
